Experimental data: patent US10995068B2, “Synthetic sphingolipid-like molecules, drugs, methods of their synthesis and methods of treatment” (The Regents of the University of California, priority 2015, dated 2021)
Several values for one entry are separate records, joined by “and”; a condition that tells them apart may be missing. Equal entries are not always repeated.

Columns and labels:
[1] = system: FL5.12 cells; assay: Vacuolation assay; type: cell-based, murine; set-up: key to Vacuolation score: 0-100 score: (3×%cat3+2×%cat2+1×%cat1)/3; cells graded 0-3 for vacuoles; conditions: FL5.12 cells, 3 h in 2.5 μM compound except where otherwise indicated, mean ± SEM, n ≥3
Experimental: In an exemplified study, nutrient transporter down-regulation was monitored by quantifying surface levels of the amino acid transporter-associated protein, CD98, by flow cytometry. Vacuolation was scored in a range from 0 to […], as determined by a vacuolation assay described in greater detail in the Materials and Methods section below.
Vacuolation assay: Cells were evaluated at 100× using brightfield microscopy and a Nikon TE2000-S fluorescence microscope equipped with DIC filters. Vacuolation was quantified after a 3 h incubation period in 2.5 μM compound except where otherwise indicated. To calculate a vacuolation score, vacuolation severity in at least 15 individual cells/experiment was assessed qualitatively. Scores were assigned to individual cells as follows: 0=no vacuoles, 1=very small vacuoles, 2=multiple well-defined vacuoles, 3=multiple large vacuoles. To calculate the vacuolation score associated with a compound, the following formula was used: vacuolation score=[(3×% cells in category 3)+(2×% cells in category 2)+(1×% cells in category 1)]/3.
The score is divided by 3 so that a compound with 100% of its cells in category 3 would have a vacuolation score of 100. Three independent experiments were conducted and the vacuolation scores averaged to generate a mean+/−SEM. All cells were scored by one lab member after confirming that a blinded individual scored 5 compounds with similar results.

[2] = Lymphocyte sequestration in mice; type: in vivo, C57BL6 mice; conditions: 10 mg/kg intraperitoneally, blood after 12 h, compared to saline
Excerpt: In more exemplary embodiments, compounds 5 and 5-P were further examined for their ability to activate multiple S1P receptors in vivo. In particular, mouse heart rate and lymphocyte sequestration were examined. Mouse heart rate decreases causing bradycardia when S1P receptor 3 is activated while in humans this effect may be mediated by S1P receptor 1. In both mice and humans, lymphocytes are sequestered when the S1P receptor 1 is activated.
Lymphocyte sequestration: Female 8-24 week old C57BL6 mice are injected intraperitoneally with vehicle (0.9% saline or 20% acidified DMSO in 0.9% saline), 10 mg/kg FTY720, FTY720-phosphate, 5, or 5-P. After 12 h, blood is collected from the retro-orbital sinus under ketamine/xylazine anesthesia. 10 μL of whole blood is added to 190 μL of ACK red blood cell lysis buffer, incubated at room temperature for 3-5 minutes […], and the white blood cells recovered by centrifugation. Nucleated cells (Hoechst33342 positive) are counted using a hemocytometer to obtain the white blood cell count. Separately, 50 μL of whole blood is added to 1 mL of ACK red blood cell lysis buffer and incubated for 3-5 minutes at room temperature. Cells are washed with FACS wash (2% FCS in PBS with 0.05% NaN3) and red blood cell lysis repeated. Tubes are decanted and resuspended in 100 μL of FACS block (10% FCS in PBS with 0.05% NaN3) with directly conjugated antibodies recognizing B220, CD4, or CD8 (all from Biolegend, San Diego) for 30 min on ice. Cells are analyzed on a BD LSR II flow cytometer; the analysis is restricted to live cells (DAPI negative). These experiments are performed in accordance with all national or local guidelines and regulations and are approved by the UCI Institutional Animal Care and Use Committee.

[3] = molecular target: T1, S1P receptor 5 (Homo sapiens, UniProt Q9H228); assay: S1P receptor activation in CHO cells, S1P5; type: cell-based; conditions: CHO cells over-expressing human S1P5
T1 construct: expressed in transfected cells
Excerpt: (§1) Phosphorylation may have effects on S1P receptor activity that could cause bradycardia. Bradycardia, the dose-limiting toxicity that prevents the use of FTY720 in cancer patients, stems from FTY720-P's actions on S1P receptors 1 and 3. (Camm, J., et al. (2014) Am. Heart J. 168, 632-644; Cohen, J. A., Chun, J. (2011) Ann. Neurol. 69, 759-777; Sanna, M. G., et al. (2004) J. Biol. Chem. 279, 13839-13848; the disclosures of which are incorporated herein by reference). Phosphorylation by sphingosine kinase may make compounds competent to activate S1P receptors. FTY720, for example, when phosphorylated is known to activate S1P receptors 1 and 3. Because compound 5 could be phosphorylated, the activity of compound 5 and its phosphate 5-P (FIG. 28) on S1P receptors was evaluated (FIG. 32).
(§2) 51P1-5 activation: Chinese hamster ovary (CHO) cells stably over-expressing the different human 51P receptor subtypes are used. S1P1, S1P4 and S1P5 overexpressing CHO cells are cultured in medium containing alpha-MEM supplemented with 10% FBS, 50 μg/ml gentamycin and 0.5 mg/ml G418. S1P2 and S1P3 overexpressing CHO cells are cultured in RPMI containing 10% FBS, 50 μg/ml gentamycin and 0.5 mg/ml G418. Prior to stimulation, cells are rendered serum-free for 24 h. Stimulation is carried out for 10 min in serum-free DMEM containing 0.1 mg/ml of fatty-acid free BSA in the absence or presence of the various compounds or 51P. Protein lysates are prepared using a buffer containing (50 mM Tris pH 7.4, 150 mM NaCl, 10% glycerol, 1% Triton X-100, 2 mM EDTA, 2 mM EGTA, 40 mM β-glycerophosphate, 50 mM sodium fluoride, 10 mM sodium pyrophosphate, 2 mM dithiothreitol, 0.2 mM sodium orthovanadate). Cells are homogenized by one 5 sec burst in a MSE Ultrasonic Disintegrator, centrifuged and taken for protein determination. Equal amounts of protein are separated by SDS-PAGE (10% polyacrylamide gel), transferred to nitrocellulose membranes and subjected to Western blot analysis. Bands were stained using IRDye® secondary antibodies and visualized by the LICOR Odyssey® Fc Imaging system. Antibodies against phospho-Thr202/Tyr204-p42/p44-MAPK and phospho-Ser PKC substrate are from Cell Signaling, Frankfurt am Main, Germany. Polyclonal antisera against total p42 and total p44 were generated and characterized as previously described. (Huwiler, A.; Pfeilschifter, J. Br. J. Pharmacol. 1994, 113, 1455-1463; disclosure of which is incorporated herein by reference).

[4] = molecular target: T2, S1P receptor 4 (Homo sapiens, UniProt O95977); assay: S1P receptor activation in CHO cells, S1P4; type: cell-based; conditions: CHO cells over-expressing human S1P4
T2 construct: expressed in transfected cells
T2 sequence (O95977 1-384): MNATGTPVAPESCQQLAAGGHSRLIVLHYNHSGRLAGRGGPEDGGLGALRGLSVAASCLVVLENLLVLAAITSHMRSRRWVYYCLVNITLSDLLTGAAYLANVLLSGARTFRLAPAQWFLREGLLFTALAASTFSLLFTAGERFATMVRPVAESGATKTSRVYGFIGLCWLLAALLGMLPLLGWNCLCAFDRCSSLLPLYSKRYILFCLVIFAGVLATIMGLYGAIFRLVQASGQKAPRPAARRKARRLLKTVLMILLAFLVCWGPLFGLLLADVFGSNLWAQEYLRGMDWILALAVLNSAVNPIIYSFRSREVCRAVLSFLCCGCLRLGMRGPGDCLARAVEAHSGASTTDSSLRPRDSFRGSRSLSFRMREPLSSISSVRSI
Excerpt: as §1, §2

T1 sequence (Q9H228 whole entry): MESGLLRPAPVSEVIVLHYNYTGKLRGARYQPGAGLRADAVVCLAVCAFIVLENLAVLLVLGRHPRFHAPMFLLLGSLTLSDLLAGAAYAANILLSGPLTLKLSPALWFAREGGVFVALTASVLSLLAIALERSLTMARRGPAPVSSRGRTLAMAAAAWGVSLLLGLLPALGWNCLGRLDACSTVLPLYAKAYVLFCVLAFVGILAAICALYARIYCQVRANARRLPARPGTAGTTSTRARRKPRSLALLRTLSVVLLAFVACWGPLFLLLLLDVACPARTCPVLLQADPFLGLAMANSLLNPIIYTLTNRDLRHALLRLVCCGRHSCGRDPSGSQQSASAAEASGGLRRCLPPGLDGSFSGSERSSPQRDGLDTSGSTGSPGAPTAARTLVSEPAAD

SMILES	Vacuolation score [1]	lymphocyte sequestration [2]	activation of S1P receptor 5 [3]	activation of S1P receptor 4 [4]	Vacuolation score ([1]; listed as 104)
CCCCCCCCc1ccc(CCC(N)(CO)CO)cc1.Cl [FTY720, 2-Amino-2-[2-(4-octylphenyl)ethyl]propane 1,3-diol hydrochloride, reference compound]	82 ± 4	significantly sequestered lymphocytes	–	–	–
CCCCCCCCc1ccc([C@@H]2CCN[C@H]2CO)cc1.Cl [Compound 6]	–	–	failed to activate	failed to activate	–
CCCCCCCCc1ccc([C@H]2CCN[C@@H]2CO)cc1.Cl [Compound 5, (2S,3R)-2-(hydroxymethyl)-3-(4-octylphenyl)Pyrrolidinium chloride]	–	no significant effect	failed to activate	failed to activate	81 and 81 ± 3
